# Test results from PubChem BioAssay AID602191 (Broad Institute, 2012).
# Active and inactive are the calls of the source.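 Rule for the calls: active = fitted curve reaches 40% activation at a concentration no higher than the top valid tested dose; inconclusive = flat fit between 30% and 70% activation, or poor fit; inactive = uptake decrease, flat fit within 30% of zero, the rest.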
# Biological target: Scavenger receptor class B member 1 (Mus musculus) (UniProt Q61009)
# Experiment: activators of SR-BI-mediated HDL uptake, dose response, cell-based, ldlA[mSR-BI] CHO, DiI fluorescence, cherry-pick (AID 602191);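 note: cell fluorescence from internalized DiI-labeled HDL after washing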;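 for AC40: potency of activators raising HDL uptake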;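 for activation (HDL uptake increase): 0% = median of DMSO wells and 100% = twice the DMSO signal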
# Settings: ldlA[mSR-BI] CHO cells, 3 h
# Sequence of Scavenger receptor class B member 1 (Mus musculus) (Q61009 whole entry, looked up): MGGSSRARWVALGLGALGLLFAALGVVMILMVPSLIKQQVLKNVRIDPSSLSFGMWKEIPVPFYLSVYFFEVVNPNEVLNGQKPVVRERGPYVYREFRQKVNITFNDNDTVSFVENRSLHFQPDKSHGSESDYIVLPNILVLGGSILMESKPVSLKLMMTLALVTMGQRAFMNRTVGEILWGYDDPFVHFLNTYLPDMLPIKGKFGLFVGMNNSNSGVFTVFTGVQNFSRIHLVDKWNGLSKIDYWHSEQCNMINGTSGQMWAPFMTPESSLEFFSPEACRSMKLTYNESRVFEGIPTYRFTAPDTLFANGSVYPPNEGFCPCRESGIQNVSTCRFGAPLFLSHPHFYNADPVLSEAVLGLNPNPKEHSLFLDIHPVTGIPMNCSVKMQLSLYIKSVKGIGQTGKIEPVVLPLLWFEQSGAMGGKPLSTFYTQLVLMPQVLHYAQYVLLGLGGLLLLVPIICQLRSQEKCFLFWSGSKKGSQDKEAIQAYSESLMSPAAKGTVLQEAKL
row,AC40,SMILES
1,> 35 µM (inactive),COc1ccc2sc(-c3ccccc3OC)c(-c3ccc(OCCN4CCCC4)cc3)c2c1
2,> 35 µM (inactive),Cc1ccc(OCC(=O)OC(C)C(=O)NC2CCCCC2C)cc1C (configuration not stated)
3,> 35 µM (inactive),O=C(C[C@H]1C[C@H](C(=O)N2CCCCC2)[C@@]2(CCc3ccccc3)c3[nH]c4ccc(Cl)cc4c3CCN2C1=O)NCc1cccc(C(F)(F)F)c1
4,> 35 µM (inactive),NCCCC[C@H]1CNC(=O)C(=O)N1CCc1cccc(F)c1
5,31.1 µM,C[C@@H]1CN([C@@H](C)CO)C(=O)Cc2cc(NC(=O)Nc3ccc(C(F)(F)F)cc3)ccc2O[C@@H]1CN(C)S(=O)(=O)c1ccc(Cl)cc1
6,> 35 µM (inactive),CCOC(=O)C(NC(=O)CC(C)C)(Nc1sc2c(c1C(N)=O)CCCC2)C(F)(F)F (configuration not stated)

# Same assay, conditions: ldlA[mSR-BI] CHO cells, 3 h, at 35 µM (top of the series)
row,activation (HDL uptake increase),SMILES
1,-3.29% (inactive),CN(C)S(=O)(=O)c1ccc(N2CCCC2)c(C(=O)NC2CCC(O)CC2)c1 (configuration not stated)
2,-4.2% (inactive),CC1CCCC(C)N1C(=O)COC(=O)CN1C(=O)c2ccccc2C1=O (configuration not stated)
3,3.81% (inactive),COc1ccc2c(c1OC)C(=O)OC2CC(=O)O (configuration not stated)
4,2.72% (inactive),O=C(COC(=O)COc1ccccc1)NCCC1=CCCCC1
5,12.2% (inactive),N#C/C(=C/c1cn(-c2ccccc2)nc1-c1cccc(OCc2ccccc2)c1)C(=O)NCCCn1ccnc1
6,-10.8% (inactive),Cc1ccc(CNC(=O)CCNC(=O)c2ccc(Br)o2)cc1
7,-7.32% (inactive),COc1ccc(C(C(=O)NC2CCCCC2)N(C(=O)CCl)c2ccc(C)cc2)cc1 (configuration not stated)
8,47.8% (inactive),C=CCC[C@@H](Cc1ccc(F)cc1)C(=O)OC[C@@H](Cc1c[nH]c2ccccc12)NC(=O)[C@@H](CC=C)CC(=O)N[C@@H](CO)Cc1ccccc1
9,-13.4% (inactive),Cc1ccc(C2(CC(=O)N3CCCC3)CCOC(C(C)C)C2)cc1 (configuration not stated)
10,0.176% (inactive),COC(=O)Cc1csc(Nc2ccccc2)n1
11,-6.43% (inactive),CC1(C)NC(=O)N(CC(=O)N2CCN(S(=O)(=O)c3ccccc3C(F)(F)F)CC2)C1=O
12,-12.6% (inactive),O=S1(=O)CCO[C@H]2Cc3ccccc3[C@H]2N1Cc1ccccc1
13,-5.97% (inactive),O=C(COC(=O)CNC(=O)c1ccc(Cl)cc1Cl)NCc1ccco1
14,-4.96% (inactive),COCCNC(=O)c1onc(CSc2ccc(F)c(F)c2)c1C(=O)O
15,-13.4% (inactive),Cc1ccc(-c2csc(=Nc3cccnc3)n2CCCN2CCCC2=O)cc1C
16,12% (inactive),N#CCCN1CCN(S(=O)(=O)c2ccc(C3CCCCC3)cc2)CC1
17,-3.26% (inactive),CCN(CC)C(=O)c1ncn(Cc2ccccc2)c1C(=O)N(CC)CC
18,-8.63% (inactive),COC(=O)CNC(=O)COC(=O)c1cc(Cl)cc(Cl)c1N
19,-2.84% (inactive),O=C(CCSc1nnc(-c2ccco2)o1)Nc1ccc(Cl)cc1
20,-8.45% (inactive),COCCCNC(=O)CCSc1ccc(Cl)cc1
21,2.78% (inactive),Cn1c(=O)[nH]c(=O)c2c1nc(N1CCN(c3ccccc3)CC1)n2CCSc1ncccn1
22,8.63% (inactive),Cc1ccc(C(=O)N/C(=C/c2ccccc2)C(=O)NC(Cc2ccccc2)C(=O)O)cc1 (configuration not stated)
23,-4.13% (inactive),O=C(CSc1nnc(CCCOc2ccc(Cl)cc2Cl)o1)Nc1ccc(C(=O)O)cc1
24,-7.63% (inactive),Cc1ccc(S(=O)(=O)N2CCOCC2)cc1C(=O)NCc1ccccc1CN1CCCC1
25,5.72% (inactive),COc1ccc(C(CNS(=O)(=O)c2ccc(NC(C)=O)c(OC)c2)N2CCCCC2)cc1 (configuration not stated)
26,-7.31% (inactive),Cc1ccc(C2/C(=C(\O)c3ccc4c(c3)OCCO4)C(=O)C(=O)N2Cc2cccnc2)cc1 (configuration not stated)

row,activation (HDL uptake increase),SMILES
1,0.427% (inactive),O=C(NCc1ccccn1)c1ccc(S(=O)(=O)Nc2ccccc2F)cc1
2,9.97% (inactive),CNC[C@H]1Oc2c(NS(=O)(=O)c3ccc(OC)cc3)cccc2C(=O)N([C@H](C)CO)C[C@H]1C
3,6.28% (inactive),C[C@]12C[C@H](O)[C@H]3[C@@H](CCC4=CC(=O)CC[C@@]43C)[C@@H]1CC[C@@H]2C(=O)CO
4,-2.56% (inactive),CC(C)CCNCC(=O)NC(c1ccccc1)c1ccccc1
5,5.66% (inactive),COc1ccc(CCNC(=S)N2CCN(S(=O)(=O)c3ccc(Cl)cc3)CC2)cc1
6,-0.437% (inactive),O=C1C2C3C=CC(C4CC34)C2C(=O)N1c1nccs1 (configuration not stated)
7,-0.502% (inactive),CC(C)N1CCc2[nH]c(=S)[nH]c(=O)c2C1
8,-3.71% (inactive),O=C(CCCc1nc2ccccc2s1)NCc1ccccc1
9,-7.38% (inactive),O=C(COC(=O)C1CCN(/C=C/C(=O)C(F)(F)F)CC1)Nc1cccc(F)c1
10,-4.56% (inactive),O=C(Cc1ccsc1)N1CCN(S(=O)(=O)c2cccc(F)c2)CC1
11,-10.8% (inactive),CC(=O)N1CCN(C(=O)c2ccc(-n3c(C)ccc3C)cc2)CC1
12,-11.4% (inactive),CCCNC(=O)c1onc(CSc2ccc(F)cc2)c1C(=O)NCCOC
13,1.38% (inactive),COc1cccc(CC(=O)Nc2ccccc2C(=O)N2CCOCC2)c1
14,-7.43% (inactive),CC(C)=C1C2CCC1C(C(=O)NCCc1ccccc1)C2C(=O)O (configuration not stated)
15,-4.87% (inactive),CCC(C)(C)NC(=O)C(c1cccnc1)N(CCOC)C(=O)Cn1nnc2ccccc21 (configuration not stated)
16,-0.519% (inactive),COc1ccccc1CNC(=O)COC(=O)CSc1ccc(C)c(C)c1
17,-1.55% (inactive),COc1cc(C(CCN2CCCC(C)C2)c2c(OC)cc(OC)c3c(-c4ccccc4)cc(=O)oc23)cc(OC)c1OC (configuration not stated)
18,-6.9% (inactive),COc1ccc(C(=O)Nc2nnc(SCC(=O)Nc3ccc(NC(C)=O)cc3)s2)c(OC)c1
19,3.89% (inactive),Cc1ccc(OCCOCCN(C)C)c(Cl)c1
20,-0.198% (inactive),C[C@@H]1CN([C@H](C)CO)C(=O)c2cc(NC(=O)Nc3ccc(C(F)(F)F)cc3)ccc2O[C@H]1CN(C)Cc1ccc(Cl)c(Cl)c1
21,-8.34% (inactive),CC1CCN(S(=O)(=O)c2ccc3c(c2)c(=O)c(C(=O)N2CCCCC2)cn3C)CC1
22,7.47% (inactive),CCN1CCN(c2ccc(S(=O)(=O)N3CCCCC3)cc2NC(=O)c2cccc(C(F)(F)F)c2)CC1
23,0.946% (inactive),CC(C)CN(C(=O)CCNC(=O)c1ccccc1Cl)C1CCS(=O)(=O)C1 (configuration not stated)
24,-3.94% (inactive),Cc1csc(SCC(=O)Nc2cc(C(N)=O)cc(C(N)=O)c2)n1
25,-1.3% (inactive),O=C(NCc1ccccc1)C1=C[C@H](c2coc3ccccc3c2=O)C[C@H](OCc2ccc(CO)cc2)O1
26,5.9% (inactive),CC(Oc1ccccc1)C(=O)Nc1cccc(F)c1 (configuration not stated)

row,activation (HDL uptake increase),SMILES
1,-8.18% (inactive),O=C(CCc1nc2ccccc2c(=O)[nH]1)N1CCN(c2ccccc2Cl)CC1
2,-3.08% (inactive),CCOC(=O)C1CCN(S(=O)(=O)c2cc(C(=O)N3CCCCC3)ccc2OC)CC1
3,-4.62% (inactive),COC(=O)CNC(=O)C12CC3CC(C1)CC(c1ccc(C)cc1)(C3)C2
4,13% (inactive),CCOC(=O)N1CCC(N2C(=O)c3ccccc3C2Nc2cc(OC)c(OC)c(OC)c2)CC1 (configuration not stated)
5,4.3% (inactive),CC(C)C(NC(=O)c1ccccc1F)C(=O)NCc1ccccc1 (configuration not stated)
6,-2.88% (inactive),O=C(N1CCN(S(=O)(=O)c2ccc(Cl)cc2)CC1)n1ccnc1
7,8.76% (inactive),Cc1ccc(N(C)C(=O)CN(C)S(=O)(=O)c2ccc3c(c2)n(C)c(=O)c(=O)n3C)cc1
8,-12.3% (inactive),O=C(c1ccco1)N1CCN(C(=S)Nc2ccc(F)c(Cl)c2)CC1
9,-3.29% (inactive),CCN1CCN(C(=O)/C(=C/c2ccco2)NC(=O)c2ccccc2)CC1
10,-0.289% (inactive),CC(C)OC(=O)C1C(=O)CC(C)(O)C(C(=O)OC(C)C)C1c1cccc([N+](=O)[O-])c1 (configuration not stated)
11,-4.62% (inactive),Cc1nc(CCNC(=O)Cc2ccc(Cl)cc2)cs1
12,-2.13% (inactive),Cc1cc(OCC(=O)OCC(=O)NC2CCCCC2C)ccc1Cl (configuration not stated)
13,-12.4% (inactive),CCN(CC(=O)Nc1ccc(OC)cc1)C(=O)c1ccc(=O)n(Cc2ccccc2)n1
14,-0.114% (inactive),CCc1cc(C(=O)Nc2cc(S(=O)(=O)N3CCOCC3)ccc2N2CCN(CC)CC2)sc1C
15,3.52% (inactive),COc1ccccc1CN(C(=O)CCl)C(C(=O)NC1CCCCC1)c1ccncc1 (configuration not stated)
16,6.17% (inactive),Cc1ccc(N(CC(=O)NC2CCC(C)CC2)S(=O)(=O)c2cccnc2)cc1 (configuration not stated)
17,-10.4% (inactive),CCc1nc(SCC(=O)Nc2ccc([N+](=O)[O-])cc2)n[nH]1
18,-10.3% (inactive),O=C(N/N=C\c1cccnc1)c1ccc(Br)s1
19,-7.88% (inactive),CC1CCCC(NC(=O)COC(=O)c2ccc3ccccc3n2)C1C (configuration not stated)
20,-20.2% (inactive),COc1ccc(OC)c(NC(=O)c2c(NC(=O)CCC(=O)O)sc3c2CCCCC3)c1
21,-3.69% (inactive),CC(=O)Nc1ccc(SCC(=O)NC(=O)c2ccc(S(=O)(=O)N(C)C)cc2)cc1
22,-11.9% (inactive),Cc1ccc(N(CC(=O)N2CC(=O)Nc3ccccc32)S(=O)(=O)c2ccc3c(c2)OCCO3)cc1
23,-6.79% (inactive),COc1ccc(S(=O)(=O)N2CCOCC2)cc1NC(=O)COC(=O)C1CC2CCCC(C1)C2=O (configuration not stated)
24,94.8% (inactive),C[C@@H]1CN([C@@H](C)CO)C(=O)Cc2cc(NC(=O)Nc3ccc(F)cc3)ccc2O[C@@H]1CN(C)Cc1ccc(Cl)c(Cl)c1
